Patent publication US10287259B2, “Selenazolidine and thiazolidine compounds for treating cancer and other diseases” (The Penn State Research Foundation, priority 2016, dated 2019)
pEC50, pIC50: −log10 of the molar value.

How the values were obtained:
[1] = system: androgen receptor (AR) signaling in LNCaP cells; assay: AR / PSA and DNA damage response proteins in LNCaP cells; assay type: cell-based
[2] = system: different cancer cell types (breast, colorectal, lung, melanoma, ovarian, prostate); assay: MTT assay in different cancer cell lines; assay type: cell-based; details: 24, 48 and 72 h
Method: (§1) MTT (3-(4,5-dimethylthiazol-2-yl)-2,5-diphenyltetrazolium) assay was performed to determine the effect of AS-10 on cancer cell viability (Plano et al., 2016, J. Med. Chem. 1946-1959; Alcolea et al., 2012, Eur. J. Med. Chem. 113:134-144; Kumar et al., 2014, Eur. J. Med. Chem. 81:267-276). Briefly, 3×10^3 cells were treated with different concentrations of AS-10 in triplicate in a 96-well plate for different time points. MTT solution (20 μL of 5.0 mg/mL solution) was added to each well, three hours prior to termination time point and incubated at 37° C. Resultant formazan crystals, at termination time point, were dissolved in 50 μL DMSO. The plate was subjected to a 96-well multiscanner (Dynex Technologies, MRX Revelation; Chantilly, Va., USA) for measuring the optical densities at 570 nm and 630 nm. IC50 values were determined by performing non-linear regression using Graphpad Prism software.

[3] = system: prostate cancer cells (LnCAP, PC-3 and DU-145); assay: Apoptosis in prostate cancer cells; assay type: cell-based
NF-κB p65 = assay: Immunocytochemistry for NF-κB p65 localization; assay type: cell-based; details: Panc-1, 10 μM 6 h, TNF-α 30 min
Method: Immunocytochemistry was used to determine the translocation of p65 from cytoplasm to nucleus in presence of inflammatory stimuli either with vehicle or AS-10 (10 μM). In a 12 well plate, Panc-1 cells (1.6×10^5) were seeded on top of a small cover slip in DMEM medium. Cells were allowed to attach to the cover slip overnight at 37° C. incubator with 5% CO2. The next day, cells were treated with 10 μM AS-10 for 6 h and further stimulated with TNF-α (100 ng/mL, 3.9 nM) for 30 min. Exactly after 30 min plates were kept on ice and cells were fixed with 4% Formaldehyde Solution made in PBS for 15 min. Cells were washes three times with 1×PBS, followed by 1 h incubation in blocking medium (0.3% Triton X-100, 5% donkey serum, made in 1×PBS) at room temperature in dark. After blocking coverslips were incubated with primary antibody solution (primary antibody diluted 1:500 in 1% BSA solution containing 0.3% Triton X-100) over night at 4° C. Next day, primary antibody was removed and cover slips were washed three times with 1×PBS. Following incubation with 0.03% H2O2 for 15 minutes at room temperature in dark. After the incubation, secondary antibody (Alexa fluor 680) was added at dilution of 1:500 in 1% BSA containing 0.3% triton X-100 and further incubated for 1 hr. […]

Panc-1 cells [4] = assay: Muse caspase 3/7 activity assay; assay type: cell-based; details: Panc-1, 10 μM
Method: To evaluate the efficacy of AS-10 in inducing caspase 3, Panc-1 cells were treated with AS-10 at different concentrations for different time points. Caspase 3/7 activity was measured using Muse Caspase-3/7 Assay kit with Muse cell analyzer (EMD Millipore, Billercia, Mass. USA) according to manufacturer's protocol (Plano et al., 2016, J. Med. Chem. 1946-1959). In brief, the Muse Caspase 3/7 kit contains a reagent namely NucView for detection of activated caspase 3/7. The reagent is cell membrane permeable and contains a DNA binding dye that is linked to a DEVD peptide substrate. In presence of activated caspase 3/7, DEVD is cleaved and DNA binding dye is released. Therefore, cells with active caspase 3/7 activity will yield high fluorescence. (Ref Millipore, Catlog No. MCH100108). The kit also contains a dead cell marker, 7-AAD, for detection of cells with compromised cell membrane. Data from Muse cell analyzer were analyzed using Muse 1.4 software.

BxPC3 cells = assay: MTT cell viability assay, BxPC3; assay type: cell-based; details: Homo sapiens, BXPC-3, different time points (24, 48, 72 h)
Method: as §1
To test the anti-cancer activity of AS-10 in pancreatic cancer (PC) cell lines, a MTT assay was performed. PC cell lines, Panc-1 and BxPC3, were treated with AS-10 at different doses at different time points (24, 48, and 72 h). Resulting cells were subjected to MTT cell viability assay. […] After 48 h, live cells were counted and plated in a new petri dish. […] At the end of 17 days the colonies were counted and compared to the untreated cells.

[5] = Maximum tolerated dose (MTD) / toxicology studies in mice
Panc-1 cells [6] = assay: MTT cell viability assay, Panc-1; assay type: cell-based; details: for pIC50: Homo sapiens
Method: as §1
To test the anti-cancer activity of AS-10 in pancreatic cancer (PC) cell lines, a MTT assay was performed. PC cell lines, Panc-1 and BxPC3, were treated with AS-10 at different doses at different time points (24, 48, and 72 h). Resulting cells were subjected to MTT cell viability assay. […] Panc-1 cells were treated with different doses of AS-10 for 48 h. After 48 h, live cells were counted and plated in a new petri dish. Cells were allowed to form colonies for 17 days. At the end of 17 days the colonies were counted and compared to the untreated cells.

[7] = system: NCI-60 Human Tumor Cell Lines; assay: NCI-60 Human Tumor Cell Lines Screen; assay type: cell-based
Method: AS-10 was submitted for National Cancer Institute's (NCI) Division of Cancer Treatment and Diagnosis (DCTD) for a single dose (10 μM for 72 h) screening on 60 different cancer cell lines (NCI-60 Human Tumor Cell Lines Screen, Developmental Therapeutic Program). The panel of cell lines included leukemia, non-small cell lung, colon, CNS, melanoma, ovarian, renal, prostate and breast cancer cell lines. […] AS-10 was screened against the same 60 cell lines at a dose of 0, 0.01, 0.1, 1, 10 and 100 μM for 72 h. […] Cell lines are grouped by the cancer type they represent. […] FIG. 16 is the tabular format of the effects of AS-10 on growth of all the tested cell lines.

LNCaP cells = assay: MTT cell viability test, LNCaP; assay type: cell-based; details: Homo sapiens, time and concentration dependent, read-out: EC50, growth inhibition of LNCaP cells
Method: as §1

CC(=O)Oc1ccccc1C(=O)/N=C1\[Se]CCN1C(=O)c1ccccc1OC(C)=O [AS-10, 2-((3-(2-acetoxybenzoyl)-1,3-selenazolidin-2-ylidene)carbamoyl)phenyl acetate]
prostate specific antigen (PSA) in cell culture media of LnCAP cells [1]: inhibited | androgen receptor (AR) level ([1]; LNCaP): down regulated | expression of p21 and p-H2A.X ([1]; LNCaP): increased the expression | protein level of AR and PSA (Western blot) ([1]; LNCaP, concentration-dependent): decreased protein level | growth of different cancer cell types [2]: effectively inhibited growth | Annexin V staining, caspase 3/7 activity, and PARP cleavage ([3]; LNCaP): increased | apoptosis induction in prostate cancer cells ([3]; LnCAP, PC-3 and DU-145): effective at inducing apoptosis in all prostate cancer cells tested | translocation of p65 to the nucleus (NF-κB p65): unable to translocate to the nucleus | mode of cell death (caspase 3/7 activity, Annexin V) (Panc-1 cells [4]): die in an apoptotic manner | necrosis (cells only positive for 7-ADD) (Panc-1 cells [4]): did not induce necrosis | pIC50 (BxPC3 cells): 5.30 to 6.00 | safety margin, preliminary toxicology study in mice ([5]; mouse, in vivo): wide safety margin | tolerability of AS-10 relative to Asp-SeCN (MTD) ([5]; nude mice): ~5 times | MTD ([5]; nude, mouse, in vivo, ip): ~80 mg/kg | pIC50 (Panc-1 cells [6]; PANC-1, 48 h): 5.60 to 6.00 | pIC50 (Panc-1 cells [6]; Panc-1, different time points (24, 48, 72 h)): 5.30 to 6.00 | potency relative to gemcitabine (Panc-1 cells [6]; Panc-1, 48 h): > 500 times | selectivity among NCI-60 cell types ([7]; 0.01-100 μM, 72 h): most cytotoxic towards CNS, melanoma and renal cancer cell lines | cell growth of NCI-60 cell lines ([7]; single dose 10 μM for 72 h): inhibited cell growth of all 60 cell lines | pEC50 (LNCaP cells): 5.60 to 5.77
